The target of one test is T1, AA (Homo sapiens, UniProt O14965).
T1 sequence (O14965 1-403): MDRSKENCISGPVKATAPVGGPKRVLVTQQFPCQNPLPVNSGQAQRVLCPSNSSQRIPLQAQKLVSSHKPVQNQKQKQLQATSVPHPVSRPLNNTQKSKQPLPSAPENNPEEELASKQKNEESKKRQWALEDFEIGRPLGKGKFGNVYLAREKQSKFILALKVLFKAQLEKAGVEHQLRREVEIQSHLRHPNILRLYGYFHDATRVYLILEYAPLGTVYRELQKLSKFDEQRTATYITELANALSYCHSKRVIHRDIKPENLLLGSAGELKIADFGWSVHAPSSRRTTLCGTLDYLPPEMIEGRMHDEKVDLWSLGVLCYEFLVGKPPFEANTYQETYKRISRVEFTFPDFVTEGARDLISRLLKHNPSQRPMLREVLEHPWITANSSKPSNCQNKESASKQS
In words: AA IC50 (Table 1; no method given). Format: biochemical.

A further test concerns the target PLK1 (Homo sapiens, UniProt P53350). Description: PLK1 protein kinase assay (CDC25C phosphorylation, [γ-32P]-ATP). It is filed as biochemical. The note with it: read-out: PLK1 IC50.
Setting [1] is: Table 2, AurA IC50, class symbols, read-out: AurA IC50.
Setting [2] is: Table 2, PLK1 IC50, class symbols.

Like-named read-outs stand apart in the source and are kept apart here. Some results are limits rather than exact numbers.

Chain of PLK1 (P53350 whole entry): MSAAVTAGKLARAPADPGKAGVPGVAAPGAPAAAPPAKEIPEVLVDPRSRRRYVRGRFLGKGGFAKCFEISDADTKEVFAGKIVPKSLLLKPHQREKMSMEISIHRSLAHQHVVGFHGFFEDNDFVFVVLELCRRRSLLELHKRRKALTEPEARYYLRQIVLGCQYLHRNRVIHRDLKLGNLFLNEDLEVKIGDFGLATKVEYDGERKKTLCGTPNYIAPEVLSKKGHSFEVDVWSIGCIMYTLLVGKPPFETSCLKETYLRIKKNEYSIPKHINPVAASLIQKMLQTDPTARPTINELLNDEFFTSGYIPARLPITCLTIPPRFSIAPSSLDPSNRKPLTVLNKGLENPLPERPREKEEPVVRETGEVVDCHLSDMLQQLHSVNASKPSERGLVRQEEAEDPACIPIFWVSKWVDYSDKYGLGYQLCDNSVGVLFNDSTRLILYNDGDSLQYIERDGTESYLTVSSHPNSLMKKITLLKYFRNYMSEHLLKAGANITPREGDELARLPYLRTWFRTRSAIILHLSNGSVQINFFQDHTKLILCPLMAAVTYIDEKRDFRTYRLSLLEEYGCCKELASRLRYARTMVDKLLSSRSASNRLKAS

Consider `COc1cc(C(=O)O)ccc1Nc1ncc2c(n1)N(C1CCCC1)CCC(=O)N2C` [compound 1, 4-(9-Cyclopentyl-5-methyl-6-oxo-6,7,8,9-tetrahydro-5H-pyrimido[4,5-b][1,4]diazepin-2-ylamino)-3-methoxy-benzoic acid], for which the IC50 is 1000 to 10000 nM at AA (Table 1, read-out: AA IC50) and below 1000 nM on PLK1 (Table 1).

Take `CC1CC(=O)Nc2cnc(Nc3ccc(C(=O)O)cc3)nc2N1C1CCCC1` (stereo not shown) [compound 7]: the half-maximal inhibitory concentration (IC50) at AA (Table 1, read-out: AA IC50) was 1000 to 10000 nM; on PLK1 (Table 1) it was below 1000 nM.

As for `CC1CC(=O)N(C)c2cnc(Nc3ccc(C(=O)O)cc3)nc2N1C1CCCC1` (stereo not shown) [compound 8, 4-(9-Cyclopentyl-5,8-dimethyl-6-oxo-6,7,8,9-tetrahydro-5H-pyrimido[4,5-b][1,4]diazepin-2-ylamino)-benzoic acid], the IC50 on AA (Table 1, read-out: AA IC50) is below 100 nM; at PLK1 (Table 1) it was below 1000 nM.

As for `CN1C(=O)CCN(c2ccccc2)c2nc(Nc3ccc(C(=O)O)cc3)ncc21` [compound 15, 4-(5-Methyl-6-oxo-9-phenyl-6,7,8,9-tetrahydro-5H-pyrimido[4,5-b][1,4]diazepin-2-ylamino)-benzoic acid], the IC50 is 100 to 1000 nM at AA (Table 1, read-out: AA IC50) and below 10000 nM at PLK1 (Table 1).

As to `CC1CN(C2CCCC2)c2nc(Nc3ccc(C(=O)NC4CCN(C)CC4)cc3)ncc2NC1=O` (stereo not shown) [compound 18, 4-(9-Cyclopentyl-7-methyl-6-oxo-6,7,8,9-tetrahydro-5H-pyrimido[4,5-b][1,4]diazepin-2-ylamino)-N-(1-methyl-piperidin-4-yl)-benzamide], the IC50 at AA (Table 1, read-out: AA IC50) was 1000 to 10000 nM; at PLK1 (Table 1) it was below 10000 nM.

For `CC1CC(=O)N(C)c2cnc(Nc3ccc(C(=O)NC4CCN(C)CC4)cc3)nc2N1C1CCCC1` (stereo not shown) [compound 37, 4-(9-Cyclopentyl-5,8-dimethyl-6-oxo-6,7,8,9-tetrahydro-5H-pyrimido[4,5-b][1,4]diazepin-2-ylamino)-N-(1-methyl-piperidin-4-yl)-benzamide], the 50% inhibitory concentration (IC50) on AA (Table 1, read-out: AA IC50) was 100 to 1000 nM; at PLK1 (Table 1) it was below 1000 nM.

In the case of `CCC1CN(C2CCCC2)c2nc(Nc3ccc(C(=O)O)cc3)ncc2N(C)C1=O` (stereo not shown) [compound 41, 4-(9-Cyclopentyl-7-ethyl-5-methyl-6-oxo-6,7,8,9-tetrahydro-5H-pyrimido[4,5-b][1,4]diazepin-2-ylamino)-benzoic acid], the half-maximal inhibitory concentration (IC50) was below 100 nM on AA (setting [1]) and below 1000 nM on PLK1 (setting [2]).

As for `COc1cc(C(=O)NC2CCN(C)CC2)ccc1Nc1ncc2c(n1)N(C(C)(C)C)CCC(=O)N2C` [compound 42, 4-(9-tert-Butyl-5-methyl-6-oxo-6,7,8,9-tetrahydro-5H-pyrimido[4,5-b][1,4]diazepin-2-ylamino)-3-methoxy-N-(1-methyl-piperidin-4-yl)-benzamide], the IC50 was below 1000 nM on AA (setting [1]) and below 10000 nM on PLK1 (setting [2]).

As for `CN1C(=O)CCN(C2CCCC2)c2nc(Nc3ccc4c(c3)CS(=O)(=O)C4)ncc21` [compound 46, 9-Cyclopentyl-2-(2,2-dioxo-2,3-dihydro-1H-2lambda*6*-benzo[c]thiophen-5-ylamino)-5-methyl-5,7,8,9-tetrahydro-pyrimido[4,5-b][1,4]diazepin-6-one], the half-maximal inhibitory concentration (IC50) on AA (setting [1]) is below 100 nM; on PLK1 (setting [2]), below 10000 nM.

Turning to `CN1C(=O)CCN(C2CCCC2)c2nc(Nc3ccc(S(=O)(=O)N4CCOCC4)cc3)ncc21` [compound 47, 9-Cyclopentyl-5-methyl-2-[4-(morpholine-4-sulfonyl)-phenylamino]-5,7,8,9-tetrahydro-pyrimido[4,5-b][1,4]diazepin-6-one], the results for the IC50 on AA (setting [1]) and on PLK1 (setting [2]) were below 100 nM and below 10000 nM, respectively.

As to `COc1cccc(N2CCC(=O)N(C)c3cnc(Nc4ccc(C(=O)O)cc4)nc32)c1` [compound 49, 4-[9-(3-Methoxy-phenyl)-5-methyl-6-oxo-6,7,8,9-tetrahydro-5H-pyrimido[4,5-b][1,4]diazepin-2-ylamino]-benzoic acid], the half-inhibitory concentration (IC50) on AA (setting [1]) and on PLK1 (setting [2]) was below 10000 nM each time.

As to `CN1C(=O)CCN(c2ccccc2F)c2nc(Nc3ccc(C(=O)O)cc3)ncc21` [compound 50, 4-[9-(2-Fluoro-phenyl)-5-methyl-6-oxo-6,7,8,9-tetrahydro-5H-pyrimido[4,5-b][1,4]diazepin-2-ylamino]-benzoic acid], the IC50 on AA (setting [1]) is below 100 nM; on PLK1 (setting [2]) it was below 10000 nM.

`CCN1C(=O)CCN(c2ccc(C(C)(C)C)cc2)c2nc(Nc3ccc4c(c3)CS(=O)(=O)C4)ncc21` [compound 335, 9-(4-tert-Butyl-phenyl)-2-(2,2-dioxo-2,3-dihydro-1H-2lambda*6*-benzo[c]thiophen-5-ylamino)-5-ethyl-5,7,8,9-tetrahydro-pyrimido[4,5-b][1,4]diazepin-6-one]: on AA (setting [1]), the IC50 is below 10000 nM.

Consider `CN1C(=O)CCN(c2ccc(N3CCOCC3)cc2)c2nc(Nc3ccc4c(c3)CS(=O)(=O)C4)ncc21` [compound 336, 2-(2,2-Dioxo-2,3-dihydro-1H-2lambda*6*- benzo[c]thiophen-5-ylamino)-5-methyl-9-(4-morpholin-4-yl-phenyl)-5,7,8,9-tetrahydro-pyrimido[4,5-b][1,4]diazepin-6-one], for which the IC50 on AA (setting [1]) is below 100 nM.

For `Cc1cc(Nc2ncc3c(n2)N(c2ccc(N4CCOCC4)cc2)CCC(=O)N3C)ccc1NC(=O)C1CC1` [compound 337], the concentration for half-maximal inhibition (IC50) on AA (setting [1]) was below 100 nM.

For `CCN1C(=O)CCN(c2ccc(N3CCOCC3)cc2)c2nc(Nc3ccc4c(c3)CS(=O)(=O)C4)ncc21` [compound 338, 2-(2,2-Dioxo-2,3-dihydro-1H-2lambda*6*- benzo[c]thiophen-5-ylamino)-5-ethyl-9-(4-morpholin-4-yl-phenyl)-5,7,8,9-tetrahydro-pyrimido[4,5-b][1,4]diazepin-6-one], the IC50 at AA (setting [1]) is below 1000 nM.

For the compound `CN1C(=O)CCN(c2c(F)cccc2F)c2nc(Nc3ccc4c(c3)CS(=O)(=O)C4)ncc21` [compound 339, 9-(2,6-Difluoro-phenyl)-2-(2,2-dioxo-2,3-dihydro-1H-2lambda*6*-benzo[c]thiophen-5-ylamino)-5-methyl-5,7,8,9-tetrahydro-pyrimido[4,5-b][1,4]diazepin-6-one], the IC50 at AA (setting [1]) was below 100 nM.

Regarding `CCN1C(=O)CCN(c2c(F)cccc2F)c2nc(Nc3ccc4c(c3)CS(=O)(=O)C4)ncc21` [compound 340, 9-(2,6-Difluoro-phenyl)-2-(2,2-dioxo-2,3-dihydro-1H-2lambda*6*-benzo[c]thiophen-5-ylamino)-5-ethyl-5,7,8,9-tetrahydro-pyrimido[4,5-b][1,4]diazepin-6-one], at AA (setting [1]), the IC50 is below 1000 nM.

For the compound `Cc1cc(Nc2ncc3c(n2)N(c2ccc(C(C)(C)C)cc2)CCC(=O)N3C)ccc1NC(=O)C1CC1` [compound 342], the IC50 at AA (setting [1]) was below 10000 nM.

For `COc1ccc(N2CCC(=O)N(C)c3cnc(Nc4ccc(S(=O)(=O)NC(C)=O)cc4)nc32)cc1` [compound 350, N-Acetyl-4-[9-(4-methoxy-phenyl)-5-methyl-6-oxo-6,7,8,9-tetrahydro-5H-pyrimido[4,5-b][1,4]diazepin-2-ylamino]-benzenesulfonamide], at AA (setting [1]), the half-inhibitory concentration (IC50) is below 1000 nM.

For `CC(=O)NS(=O)(=O)c1ccc(Nc2ncc3c(n2)N(c2c(F)cccc2F)CCC(=O)N3C)cc1` [compound 351, N-Acetyl-4-[9-(2,6-difluoro-phenyl)-5-methyl-6-oxo-6,7,8,9-tetrahydro-5H-pyrimido[4,5-b][1,4]diazepin-2-ylamino]-benzenesulfonamide], the IC50 on AA (setting [1]) is below 100 nM.

Consider `CC(=O)NS(=O)(=O)c1ccc(Nc2ncc3c(n2)N(c2ccc(N4CCOCC4)cc2)CCC(=O)N3C)cc1` [compound 352], for which, on AA (setting [1]), the half-maximal inhibitory concentration (IC50) is below 1000 nM.

For orientation: IC50 means the midpoint of a concentration-inhibition curve.

The record behind these values is patent US8563542B2 (Cyclacel Limited, priority 2007, dated 2013).
